The values that follow come from ChEMBL document CHEMBL1122447, “2-Acetylpyridine thiosemicarbazones. 5. 1-[1-(2-Pyridyl)ethyl]-3-thiosemicarbazides as potential antimalarial agents” (1983).

Test [1] has as its system Plasmodium berghei. Put plainly: Antimalarial activity against Plasmodium berghei infected mice (Mus musculus) at 320 mg/kg; toxic in 5 of 5. It counts as functional, organism-based. More on the design: dose 320 mg/kg.
The test system of test [2] is Plasmodium berghei. As to the kind of experiment: Antimalarial activity against Plasmodium berghei infected mice (Mus musculus) at 640 mg/kg; toxic in 5 of 5. It counts as functional, organism-based. Also on record: dose 640 mg/kg.
Test [3] has as its system Plasmodium berghei. Put plainly: Antimalarial activity as increased MST in Plasmodium berghei infected mice (Mus musculus) at 20 mg/kg. Format: functional.
Test [4] relates to Plasmodium berghei. As to the kind of experiment: Antimalarial activity as increased MST in Plasmodium berghei infected mice (Mus musculus) at 40 mg/kg; Toxic in 1 of 5. Format: functional.
Test [5] deals with Plasmodium berghei. Put plainly: Increased mean survival time in drug-sensitive Plasmodium berghei infected mice (Mus musculus) at 640 mg/kg; toxic in 4 of 5. It counts as functional.
In test [6] the test system is Plasmodium berghei. As to the kind of experiment: Increased mean survival time in drug-sensitive Plasmodium berghei infected mice (Mus musculus) at 80 mg/kg; cured 3 of 5. It counts as functional, organism-based. Also on record: dose 80 mg/kg.
In test [7] the test system is Plasmodium berghei. As to the kind of experiment: (§1) Increased mean survival time in drug-sensitive Plasmodium berghei infected mice (Mus musculus) at 160 mg/kg; cured 5 of 5. It counts as functional, organism-based. More on the design: dose 160 mg/kg.
Test [8] relates to Plasmodium berghei. As to the kind of experiment: Increased mean survival time in drug-sensitive Plasmodium berghei infected mice (Mus musculus) at 20 mg/kg; cured 1 of 5. More on the design: dose 20 mg/kg. It counts as functional, organism-based.
Test [9] concerns Plasmodium berghei. As to the kind of experiment: Increased mean survival time in drug-sensitive Plasmodium berghei infected mice (Mus musculus) at 320 mg/kg dose. Format: functional.
Test [10] has as its system Plasmodium berghei. Put plainly: Increased mean survival time in drug-sensitive Plasmodium berghei infected mice (Mus musculus) at 40 mg/kg; cured 3 of 5. Format: functional, organism-based. Also on record: dose 40 mg/kg.
The subject of test [11] is Plasmodium berghei. Put plainly: Increased mean survival time in drug-sensitive Plasmodium berghei infected mice (Mus musculus) at 320 mg/kg; cured 2 of 5. Format: functional, organism-based. More on the design: dose 320 mg/kg.
Test [12] has as its system Plasmodium berghei. As to the kind of experiment: Increased mean survival time in drug-sensitive Plasmodium berghei infected mice (Mus musculus) at 80 mg/kg; cures 3 of 5. It counts as functional, organism-based. Also on record: dose 80 mg/kg.
The subject of test [13] is Plasmodium berghei. The description is as §1. Format: functional.
In test [14] the test system is Plasmodium berghei. Put plainly: Increased mean survival time in drug-sensitive Plasmodium berghei infected mice (Mus musculus) at 40 mg/kg; cured 1 of 5. Format: functional, organism-based. Also on record: dose 40 mg/kg.
The subject of test [15] is Plasmodium berghei. Put plainly: Antimalarial activity against Plasmodium berghei infected mice (Mus musculus) at 320 mg/kg; toxic in 1 of 5. Format: functional, organism-based. More on the design: dose 320 mg/kg.
Test [16] deals with Plasmodium berghei. Put plainly: Increased mean survival time in drug-sensitive Plasmodium berghei infected mice (Mus musculus) at 20 mg/kg dose. Format: functional.
The test system of test [17] is Plasmodium berghei. As to the kind of experiment: Antimalarial activity as increased MST in Plasmodium berghei infected mice (Mus musculus) at 160 mg/kg. Format: functional.
For test [18], the system named is Plasmodium berghei. As to the kind of experiment: Antimalarial activity as increased MST in Plasmodium berghei infected mice (Mus musculus) at 40 mg/kg. Format: functional.
The subject of test [19] is Plasmodium berghei. As to the kind of experiment: Antimalarial activity as increased MSTin Plasmodium berghei infected mice (Mus musculus) at 640 mg/kg; Toxic in 3 of 5. Format: functional.

Regarding `CC(N/N=C(\S)N(C)C)c1ccccn1` (stereo not given), the Survival time entry is “Toxic in 5 of 5 mice” in the test on Plasmodium berghei [1], “Toxic in 5 of 5 mice” in the test on Plasmodium berghei [2], 2 days in the test on Plasmodium berghei [3] and 3.2 days in the test with Plasmodium berghei [4].

As for `C/C(=N\N=C(/S)N1CC2CCC(CC2)C1)c1ccccn1`, the Survival time in the test on Plasmodium berghei [5] is 0.4 days; with Plasmodium berghei [6], “Cured 3 of 5 mice”; with Plasmodium berghei [7], “Cured 5 of 5 mice”; with Plasmodium berghei [8], “Cured 1 of 5 mice”; in the test with Plasmodium berghei [9], 0.2 days; with Plasmodium berghei [10] it was “Cured 3 of 5 mice”.

In the case of `CC(N/N=C(\S)N1CCN(c2ccccn2)CC1)c1ccccn1` (stereo not given), the Survival time entry is “Cured 2 of 5 mice” in the test on Plasmodium berghei [11]; “Cured 3 of 5 mice” in the test with Plasmodium berghei [12]; 5 days with Plasmodium berghei [13]; “Cured 1 of 5 mice” with Plasmodium berghei [14]; “Toxic in 1 of 5 mice” in the test on Plasmodium berghei [15]; “Toxic in 5 of 5 mice” in the test with Plasmodium berghei [2]. Moreover, the Survival time with Plasmodium berghei [16] worked out at 0.4 days.

With `CC(N/N=C(\S)NCc1ccccc1)c1ccccn1` (stereo not given), the Survival time is 0.7 days in the test with Plasmodium berghei [17], -0.1 days in the test on Plasmodium berghei [18] and 2.4 days with Plasmodium berghei [19].
